In patent US8097728B2, “Iminosugar compounds with antiflavirus activity” (Philadelphia Health & Education Corporation, priority 2007, dated 2012):
Like-named read-outs stand apart in the source and are kept apart here.

Legend:
ER glucosidase = settings: 6000 uM; cited from earlier work
HBV = HBV antigen assay: LHBs and MHBs secreted by HepG2.2.15 cells, immunoblot; assay type: cell-based, Hepatitis B virus; settings: 7 days
Method: MHBs and LHBs are HBV envelope proteins that are sensitive to glucosidase inhibition and inhibition of these important viral glycoproteins serves as a surrogate for HBV growth. […] To assess the activity of this compound in the context of viral replication, HepG2 2.2.15 cells were incubated with the indicated DNJ derived compound. HepG 2.2.15 cells secrete readily detectable amounts of MHBs and LHBs into the culture medium. After 7 days of incubation, the amount of HBV M and L in the culture medium was determined by western blot. […] The nature of the selective antiviral activity is not known, but may be due to cell specific activity since HBV is studied in human liver derived hepatoblastoma HepG2 cells and BVDV and WNV were studied in MDBK and BHK cells, respectively.
HBV antigen assay: Antiviral activity against HBV was determined using HepG2.2.15 cells, which contain a dimer of the HBV genome and express all viral gene products, including envelope glycoproteins (Sells, Chen, and Acs, 1987). Briefly, HepG2.2.15 cells were seeded in 24 well trays, and allowed to grow to confluence prior to addition of drug, as described previously (Simsek et al., 2005). After seven days of treatment, supernatants were harvested and assayed for the presence of the Large Hepatitis B (LHBs) and middle Hepatitis B (MHBs) glycoproteins by electrophoresis through 12% polyacrylamide gels and immunoblotting with a polyclonal antibody that recognizes the pre-S2 region of the LHBs and MHBs proteins (Research Diagnostics Inc., Flanders, N.J.) as described (Simsek et al., 2005). Quantitation was performed using AlphaEase software (Alphalnnotech).

MHBs = MHBs expressed transiently in cells; read-out: IC50, reduction of secretion of MHBs; cited from earlier work
BVDV = BVDV single cycle virus yield reduction assay in MDBK cells; assay type: cell-based, Bovine Viral Diarrhea virus (NADL strain)
Method: BVDV antiviral and plaque assays. To evaluate antiviral activity against BVDV, a single cycle virus yield reduction assay was performed in the presence of various concentrations of the test compounds. Specifically, 2×10^5 MDBK cells/well were plated in 24 well plates. Twenty-four hours later, the cells were infected with BVDV at a multiplicity of infection (moi) of 0.5 PFU/cell in 100 ul complete media. After adsorption for 1 h at 37° C., the inoculum was removed, and cells were washed with media before media containing vehicle or various concentrations of each compound was added. At 22 hour post infection, both cell and media were collected and freeze-thawed three times before the virus was titered. For BVDV virus titer determination, 10^−2, 10^−3, and 10^−4 dilutions of virus were inoculated onto MDBK cells as described previously (Gu et al., 2000; Jordan et al., 2002). After absorption and washing the cells were overlaid with medium containing methylcellulose or soft agar and incubated at 37° C. for 3 days or until plaques were visible. Plaques were counted directly under the microscope or after staining with crystal violet in 70% methanol for 15 min.
(§1) The anti-viral activity of this family of compounds against BVDV was then determined by a single cycle viral yield reduction assay in Madin Darby Bovine Kidney (MDBK) cells where the compounds are incubated with cells for 20 hours during the period of infection. Yields of virus were then determined by plaque assay on new MDBK cell monolayers. Compound toxicity was measured by MTT assay and the CC50 determined as the concentration of compound producing 50% reduction in absorption readings. […] This is consistent with previous findings in which oxygenation and methoxylation of side chains emanating from the ring nitrogen were less toxic in tissue culture and in animals than straight chain alkylated DNJs (Mehta et al., 2002b).

BHK cells = assay: MTT compound toxicity assay on BHK cells; assay type: cell-based
Method: (§2) Compound toxicity assay. Compound cytotoxicity was assessed by using an MTT based toxicity assay kit (Sigma, St. Louis, Mo.) as described elsewhere (Gu et al., 2006). Briefly, cells cultured under conditions identical to those used in the viral assay were incubated with various concentrations of the compound for 72 hours. MTT was added to the media to a final concentration of 0.5 mg/ml and was incubated for 3 hours at 37 C. After the culture media was removed, formazan crystals was dissolved by adding 150 ul of solubilization solution (10% Triton X-100, 0.1 N HCl in anhydrous isopropanol) for 15-30 minutes. The absorbance of the dissolved formazan was measured spectrophotometrically at 570 nm with absorbance at 690 nm as background.

DV serotype 2 = assay: DV yield reduction assay in BHK cells; assay type: cell-based, Dengue virus (DV) serotype 2; settings: DV (BHK)
Method: In the DV infection assay, a serotype 2 DV was used to infect BHK cells in the presence or absence of testing compounds and viruses produced after 72 hours were titered in a manner similar to the WNV assay. In this experiment, N-butylcyclohexyl-DNJ (SP169), N-pentyl(1-hydroxylcyclohexyl)-DNJ (OSL-95II), […] and N-propylcyclohexyl-DNJ (SP173) were compared with NNDNJ (Wu et al., 2002) and castanospermine. […] All compounds had no toxicity at the highest concentrations used in this experiment (FIG. 5B, Table 1).

MDBK cells = assay: MTT compound toxicity assay on MDBK cells; assay type: cell-based, Bovine; settings: BVDV (MDBK); concentration reducing MTT values (570 nm) by 50% relative to DMSO; 72 hours
Method: as §2, §1

WNV = WNV yield reduction assay in BHK cells
Method: Cells and viruses. BVDV-free MDBK cells (CCL 22) were obtained from the American Type Culture Collection and propagated in DMEM/F12 essential medium supplemented with penicillin (500 U/ml), streptomycin (500 U/ml), and 10% heat inactivated horse serum (Invitrogen). Cells were maintained in a humidified incubator at 37° C. with 5% CO2. BVDV (NADL strain) was obtained from Dr. Rubin Donis (Univ. of Nebraska-Lincoln). For infections, virus inoculum was added in complete medium and adsorbed for 1 h at 37° C., the inoculum was then removed, the cells washed once with medium and fresh medium containing compounds added. Virus stocks were prepared by freeze-thawing the infected cells and culture supernatant three times followed by centrifugation at 1,000 g for 5 min. Stock titers were determined, and stocks were aliquoted and stored at −80° C. WNV was obtained from a cDNA clone of a human 2002 isolate from Texas (Rossi et al., 2005); virus obtained from BHK cells electroporated with the in vitro synthesized RNA from this cDNA clone was passaged in Vero cells before use in antiviral assays. Dengue virus (DV) serotype 2 was a New Guinea C virus that had been passaged 28 times in suckling mouse brain, twice in Vero cells, and once in C6/36 mosquito cells.
WNV and DV Yield Reduction assay: Antiviral activity against WNV was evaluated in a yield reduction assay. Briefly, BHK cells were plated in 96-well plates at a concentration of 2.5×10^4 cells/well. 24 hours after plating, the cells were infected with WNV at an MOI of 0.05. After 1 hour the inoculum was aspirated and the cells re-fed with fresh DMEM containing dilutions of the test compounds. Plates were then incubated at 37° C. for 48 hours, the supernatant collected and the WNV produced titered. For virus titration, Vero cells were plated in 96-well plates at 8.0×10^3 cells/well and incubated overnight. The Vero cell monolayers were then infected for 1 hour with various dilutions of the WNV supernatant, overlaid with media containing 0.6% tragacanth (ICN, CA) and incubated at 37° C. for 24-30 hours. The culture media was then aspirated; the plate was rinsed, air-dried, and fixed with 50 ul/well acetone/methanol (50:50). Viral foci were detected for enumeration by immunostaining as described previously (Rossi et al., 2005). For antiviral testing against DV, DV serotype 2, drug incubations and titrations were performed essentially as described for WNV, except that the virus was harvested from drug-treated cultures 72 hrs after infection, and foci were stained using hybridoma culture fluid harvested from monoclonal antibody-producing hybridoma clone D1-4G2 (Gentry et al., 1982) following 3 days of incubation on Vero cells under the tragacanth overlay.
For this purpose, BHK cells were infected with WNV at an moi of 0.05, and incubated in either the absence or presence of various concentrations of N-butylcyclohexyl-DNJ (SP169) and N-propylcyclohexyl-DNJ (SP173). After three days, the amount of progeny virus produced was determined by plaque assays on indicator Vero cells.

Compound | inhibition of the ER glucosidase (ER glucosidase) | reduction of MHBs and LHBs in culture medium (in words) (HBV; 6000 uM (6 mM), FIG. 6B) | IC50 (MHBs) [µM] | SI (Selective Index, CC50/IC50) (BVDV; BVDV (MDBK)) | IC50 (BVDV; tissue culture, data not shown, read-out: concentration inhibiting 50% of the yield of BVDV) [µM] | concentration without any detectable cell toxicity (highest concentration tested) (BHK cells; BHK cells, measured in parallel to WNV assay, data not shown) [µM] | CC50 (BHK cells; WNV (BHK), MTT, 50% reduction relative to DMSO) [µM] | SI (Selective Index, CC50/IC50) (DV serotype 2) | IC50 (DV serotype 2; serotype 2, 72 hrs, read-out: IC50) [µM] | inhibition of secretion of viral glycoproteins MHBs and LHBs (in words) (HBV; 50 uM, FIG. 6A) | CC50 (MDBK cells) [µM] | antiviral activity against WNV (in words) (WNV; BHK cells, moi 0.05, FIG. 3B / 4D) | SI (Selective Index, CC50/IC50) (WNV; WNV (BHK)) | IC50 (WNV; WNV (BHK), plaque number reduced by 50% relative to DMSO, 48 hours) [µM] | IC50 (WNV; read-out: concentration inhibiting 50% of the WNV progeny produced, text to FIG. 3B, BHK cells, moi 0.05) [µM]
OC[C@H]1NC[C@H](O)[C@@H](O)[C@@H]1O [DNJ, 1,5-dideoxy-1,5-imino-D-glucitol, reference compound] | at least 90% | antiviral activity at this dose is consistent with previous findings | – | – | – | – | – | – | – | – | – | – | – | – | –
OC[C@@H]1[C@@H](O)[C@H](O)[C@@H](O)CN1CCCCC1CCCCC1 [SP169, N-butylcyclohexyl-DNJ] | – | – | ≤ 35 | >100 | 3 | 100 | > 100 | >66 | 1.5 | unable to inhibit secretion of viral glycoproteins | 300 | comparable to NNDNJ in activity | >40 | 2.5 | 5
